Entries after “also recorded” stand apart in the source; their conditions may differ.
Key:
Assay type in all cases: physicochemical
[1] = Stability at high temperature (80° C., 2 days, purity by UPLC); details: for Chemical purity (in words) / Purity change: 2 days; for Purity change: glass vial with cap
Procedure: (§1) The related substance in the present disclosure was detected by UPLC and the parameters are shown below.
Certain amounts of Form CSII of the present disclosure and the prior art amorphous form were weighted and stored at 80° C. for 2 days, and the purities of the solids before and after storage were determined by UPLC, the results are as shown in Table 4.
Certain amounts of Form CSIII of the present disclosure and the prior art amorphous form were weighted and stored at 80° C. for 2 days, and the purities of the solids before and after storage were determined by UPLC, the results are as shown in Table 11.
Certain amounts of Form CSIV of the present disclosure and the prior art amorphous form were stored at 80° C. for 2 days, and the purities of the solids before and after storage were determined by UPLC, the results are as shown in Table 17.

[2] = Stability of crystalline form in tablet formulation process (XRPD before and after); details: tablets per Table 7 and Table 8, XRPD
Procedure: According to the formulation and process in Table 7 and Table 8, the tablets were prepared with an appropriate amount of Form CSII of the present disclosure. XRPD was tested before and after formulation.
According to the formulation and process in Table 7 and Table 8, the tablets were prepared with an appropriate amount of Form CSIII of the present disclosure. XRPD was tested before and after formulation.
According to the formulation and process in Table 7 and Table 8, the tablets were prepared with an appropriate amount of Form CSIV of the present disclosure. XRPD was tested before and after formulation.

[3] = Hygroscopicity by DVS (0% RH-95% RH-0% RH at 25° C.); details: for Weight gain relative to that of the prior art / Weight gain at 80% RH: 80% RH; for Weight gain at 80% RH: DVS; for Weight gain at 80% RH / Hygroscopicity class: 25° C.; for Crystalline state after the DVS test: XRPD before and after DVS; for Hygroscopicity class: weight gain at 80% RH
Procedure: DVS was measured via an SMS (Surface Measurement Systems Ltd.) intrinsic DVS instrument.
Parameters for DVS method are as follows: • Temperature: 25° C. • Gas and flow rate: nitrogen, 200 mL/min • RH range: 0% RH to 95% RH • ^1H NMR were collected from a Bruker Avance II DMX 400M HZ NMR spectrometer. 1-5 mg of sample was weighed and dissolved in 0.5 mL of deuterated dimethyl sulfoxide to obtain a solution with a concentration of 2-10 mg/mL.
Certain amounts of Form CSII of the present disclosure and the prior art amorphous form were sampled for hygroscopicity tests using DVS instrument. The weight change at each relative humidity was recorded during the cycle of 0% RH-95% RH-0% RH at 25° C.
Description and definition of hygroscopicity (general notice 9103 drug hygroscopicity test guidelines in 2020 edition of Chinese Pharmacopoeia, experimental condition: 25±1° C., 80±2% RH):
Certain amounts of Form CSIII of the present disclosure and the prior art amorphous form were sampled for hygroscopicity tests using DVS instrument. The weight change at each relative humidity was recorded during the cycle of 0% RH-95% RH-0% RH at 25° C.
Certain amounts of Form CSIV of the present disclosure and the prior art amorphous form were sampled for hygroscopicity tests using DVS instrument. The weight change at each relative humidity was recorded during the cycle of 0% RH-95% RH-0% RH at 25° C.

[4] = Grinding stability (manual grinding 5 minutes in a mortar, XRPD); details: ground manually 5 minutes in a mortar
Procedure: Form CSII was grounded manually for 5 minutes in a mortar. XRPD was tested before and after the grinding.
Form CSIII was grounded manually for 5 minutes in a mortar. XRPD was tested before and after the grinding.
Form CSIV was grounded manually for 5 minutes in a mortar. XRPD was tested before and after the grinding.

[5] = Physical and chemical stability on storage in opened packages (purity by UPLC, solid form by XRPD)
Procedure: X-ray powder diffraction patterns in the present disclosure were acquired by a Bruker X-ray powder diffractometer. The parameters of the X-ray powder diffraction method of the present disclosure are as follows: • X-Ray: Cu, Kα • Kα1 (Å): 1.54060; Kα2 (Å): 1.54439 • Kα2/Kα1 intensity ratio: 0.50
as §1
Said “room temperature” is not a specific temperature, but a temperature range of 10-30° C. Said “open packaged” is putting the sample into a glass vial, covering the vial with aluminum foil, and punching 5-10 holes on the foil.
(§2) Form CSII of the present disclosure and the prior art amorphous form were weighed and stored under 25° C./60% RH, 40° C./75% RH and 60° C./75% RH conditions, in opened packages, respectively. The purity and solid form were determined by UPLC and XRPD. The results are listed in Table 3, and the overlaid XRPD patterns of Form CSII before and after storage for stability evaluation are shown in FIG. 4.
as §2, with “CSIII” for “CSII”, “10,” for “3,”, “9.” for “4.”
as §2, with “CSIV” for “CSII”, “C./60%” for “C./60% RH, 40° C./75%”, “40°” for “60°”, “16,” for “3,”, “15.” for “4.”

[6] = Light stability (Chinese Pharmacopoeia method, purity by UPLC); details: light not less than 1.2×10^6 lux-hr, near-UV not less than 200 W-hr/m^2; for Purity change: 1 week; for Chemical purity (in words): about 1 week
From the text: as §1
(§3) Certain amounts of Form CSII of the present disclosure and the prior art amorphous form were weighted and stored for about 1 week, in accordance with the method of the Chinese Pharmacopoeia, under the condition that the total illumination of the light source was not less than 1.2×106 lux-hr and the energy of the near-ultraviolet lamp was not less than 200 W-hr/m^2, the purities of the solids before and after storage were measured by UPLC and the results are shown in Table 5.
as §3, with “CSIII” for “CSII”, “1.2×10^6” for “1.2×106”, “12.” for “5.”
as §3, with “CSIV” for “CSII”, “1.2×10^6” for “1.2×106”, “18.” for “5.”

[7] = 25° C./60% RH, 6 months, open package
[8] = 40° C./75% RH, 6 months, open package
[9] = 60° C./75% RH, 1 month, open package
[10] = 25° C./60% RH, 2 months, open package
[11] = 40° C./75% RH, 2 months, open package

Structure (SMILES) | Chemical purity (in words) [1] | Purity change [1] | Crystalline state after formulation process (mixed with excipients, tableted) [2] | Weight gain relative to that of the prior art [3] | Weight gain at 80% RH [3] | Crystalline state after the DVS test [3] | Hygroscopicity class [3] | Crystalline state after grinding [4] | Chemical purity during storage ([5]; 25° C./60% RH) | Time for which the crystalline state doesn't change / form is stable ([5]; 25° C./60% RH) | Time for which the crystalline state doesn't change / form is stable ([5]; 40° C./75% RH) | Purity ([5]; Initial) | Solid form ([5]; Initial) | Purity change [6] | Chemical purity (in words) [6] | other results
C=CC(=O)N1CCC[C@@H](n2c(=O)n(-c3ccc(Oc4ccccc4)cc3)c3c(N)nccc32)C1 [Form CSIII, (R)-1-(1-acryloylpiperidin-3-yl)-4-amino-3-(4-phenoxyphenyl)-1H-imidazo[4,5-c] pyridin-2(3H)-one] | basically remained unchanged | +0.04% | remained unchanged; also recorded: did not change | ⅙ | 0.66% | remained unchanged | slightly hygroscopic | remains unchanged | above 99.9% | at least 6 months | at least 6 months | 99.91% | Form CSIII | +0.02% | basically remained unchanged | Time for which chemical purity remains substantially unchanged [1]: at least 2 days; Purity [5, 7]: 99.93%; Purity change [5, 7]: +0.02%; Solid form [5, 7]: Form CSIII; The number of the purities exceeding the qualification thresholds [5, 7]: 0; Chemical purity during storing ([5]; 40° C./75% RH and 60° C./75% RH): above 99.8%; Purity [5, 8]: 99.91%; Purity change [5, 8]: 0%; Solid form [5, 8]: Form CSIII; The number of the purities exceeding the qualification thresholds [5, 8]: 0; Time for which the crystalline state doesn't change ([5]; 60° C./75% RH): at least 1 month; Solid form and purity after storage ([5]; 60° C./75% RH, 1 month): remained basically unchanged; Purity [5, 9]: 99.86%; Purity change [5, 9]: −0.05%; Solid form [5, 9]: Form CSIII; The number of the purities exceeding the qualification thresholds [5, 9]: 0; The number of the purities exceeding the qualification thresholds ([5]; Initial, ICH Q3A (R2) thresholds): 0; Impurity content versus qualification threshold ([5]; throughout the stability investigation processes): did not exceed the qualification thresholds; also recorded: did not exceed the qualificated threshold; Time for which there is no change in the purity [6]: at least 1 week
C=CC(=O)N1CCC[C@@H](n2c(=O)n(-c3ccc(Oc4ccccc4)cc3)c3c(N)nccc32)C1 [Form CSIV, (R)-1-(1-acryloylpiperidin-3-yl)-4-amino-3-(4-phenoxyphenyl)-1H-imidazo[4,5-c] pyridin-2(3H)-one] | basically remained unchanged | +0.03% | remained unchanged; also recorded: did not change | 1/15 | 0.24% | remained unchanged | slightly hygroscopic | remains unchanged | above 99.7% | at least 2 months | at least 2 months | 99.74% | Form CSIV | +0.06% | basically remained unchanged | Purity [5, 10]: 99.74%; Purity change [5, 10]: 0.00%; Solid form [5, 10]: Form CSIV; Purity [5, 11]: 99.75%; Purity change [5, 11]: +0.01%; Solid form [5, 11]: Form CSIV

— patent US20250034130A1, “Crystal Form of Tolebrutinib, Preparation Method Therefor and Use Thereof” (Principia Biopharma Inc., priority 2021, published 2025)
